Data published in patent US20220370453A1 (Storm Therapeutics Ltd, priority 2019, published 2022).

Assays:
BCDIN3D [1] = biological target: T1, BCDIN3D (Homo sapiens, UniProt Q7Z5W3); experiment: BCDIN3D IC50 RFMS (RapidFire) assay with mini-helix; type: biochemical; conditions: mini-helix substrate 0.2 μM, SAM 6 μM, 25 nM enzyme
T1 sequence (Q7Z5W3 1-292): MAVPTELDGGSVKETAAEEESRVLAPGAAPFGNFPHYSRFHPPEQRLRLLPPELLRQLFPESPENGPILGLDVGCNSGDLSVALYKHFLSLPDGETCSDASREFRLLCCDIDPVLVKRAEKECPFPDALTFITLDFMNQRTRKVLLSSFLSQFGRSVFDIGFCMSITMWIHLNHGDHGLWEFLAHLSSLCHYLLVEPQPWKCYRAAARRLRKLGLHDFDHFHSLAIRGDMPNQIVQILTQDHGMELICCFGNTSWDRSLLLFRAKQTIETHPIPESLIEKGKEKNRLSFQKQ
Summary of the method: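 25 nM enzyme preincubated 10 min at room temperature with compound (1% DMSO) in 25 mM Tris pH 8.0, 10 mM DTT, 1 mM EDTA, 0.03% BSA. Reaction started with 0.2 μM mini-helix plus 6 μM SAM, run 1 h at 37 °C, quenched with TCA; SAH product quantified by RapidFire MS against isotopic SAH standards.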

BCDIN3D [2] = biological target: T1, BCDIN3D; experiment: BCDIN3D InCellPulse thermal stability assay in transfected A549 cells; type: cell-based; conditions: transiently transfected A549 cells, heat shock 58° C. 15 min
Summary of the method: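 A549 cells transiently expressing BCDIN3D N-terminally fused to ePL ProLabel tag, 1500 cells/well, pre-incubated 1 h at 37 °C with compound (0.6% DMSO). Heat shock 58 °C for 15 min; remaining soluble fusion detected by split β-galactosidase complementation luminescence.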

Compound	IC50 (BCDIN3D [1])	IC50 (BCDIN3D [2])
Cn1ncc2c(Nc3ccc(C(F)(F)F)cc3)nc(NCC(N)CF)nc21 (stereo not shown) [Compound 3.26, 6-N-(2-amino-3-fluoropropyl)-1-methyl-4-N-[4-(trifluoromethyl)phenyl]pyrazolo[3,4-d]pyrimidine-4,6-diamine]	3000 nM	4030 nM
COCC(N)CNc1nc(NCc2ccc(C)c(Cl)c2)c2cnn(C)c2n1 (stereo not shown) [Compound 3.27, 6-N-(2-amino-3-methoxypropyl)-4-N-[(3-chloro-4-methylphenyl)methyl]-1-methylpyrazolo[3,4-d]pyrimidine-4,6-diamine]	4310 nM	4790 nM
Cn1ncc2c(Nc3ccc(C(F)(F)F)cc3)nc(NCC3(N)COC3)nc21 [Compound 3.28, 6-N-[(3-Aminooxetan-3-yl)methyl]-1-methyl-4-N-[4-(trifluoromethyl)phenyl]pyrazolo[3,4-d]pyrimidine-4,6-diamine]	383 nM	4670 nM
CCn1ncc2c(NC(C)C)nc(NCC(N)c3ccccc3)nc21 (stereo not shown) [Compound 4.02, 6-N-(2-Amino-2-phenylethyl)-1-ethyl-4-N-propan-2-ylpyrazolo[3,4-d]pyrimidine-4,6-diamine]	4280 nM	5670 nM
Cn1ncc2c(NCc3ccc(F)c(Cl)c3)nc(NCC(N)c3ccccc3)nc21 (stereo not shown) [Compound 4.05, 6-N-(2-amino-2-phenylethyl)-4-N-[(3-chloro-4-fluorophenyl)methyl]-1-methylpyrazolo[3,4-d]pyrimidine-4,6-diamine]	109 nM	275 nM
Cn1ncc2c(NCc3cccc(Br)c3)nc(NCC(N)c3ccccc3)nc21 (stereo not shown) [Compound 4.06, 6-N-(2-amino-2-phenylethyl)-4-N-[(3-bromophenyl)methyl]-1-methylpyrazolo[3,4-d]pyrimidine-4,6-diamine]	87.2 nM	139 nM
Cn1ncc2c(NCc3ccc(Br)cc3)nc(NCC(N)c3ccccc3)nc21 (stereo not shown) [Compound 4.07, 6-N-(2-amino-2-phenylethyl)-4-N-[(4-bromophenyl)methyl]-1-methylpyrazolo[3,4-d]pyrimidine-4,6-diamine]	132 nM	282 nM
Cn1ncc2c(Nc3ccc(F)cc3)nc(NCC(N)c3ccccc3)nc21 (stereo not shown) [Compound 4.10, 6-N-(2-amino-2-phenylethyl)-4-N-(4-fluorophenyl)-1-methylpyrazolo[3,4-d]pyrimidine-4,6-diamine]	71.7 nM	323 nM
Cn1ncc2c(Nc3cnc(C(F)(F)F)nc3)nc(NCC(C)(N)c3ccccc3)nc21 (stereo not shown) [Compound 4.11, N6-(2-amino-2-phenyl-propyl)-1-methyl-N4-[2-(trifluoromethyl)pyrimidin-5-yl]pyrazolo[3,4-d]pyrimidine-4,6-diamine]	168 nM	2160 nM
Cn1ncc2c(Nc3ccc(OC(F)(F)F)cc3)nc(NCC(C)(N)c3ccccc3)nc21 (stereo not shown) [Compound 4.12, N6-(2-amino-2-phenyl-propyl)-1-methyl-N4-[4-(trifluoromethoxy)phenyl]pyrazolo[3,4-d]pyrimidine-4,6-diamine]	52.1 nM	186 nM
Cn1ncc2c(Nc3ccc(Cl)c(Cl)c3)nc(NCC(C)(N)c3ccccc3)nc21 (stereo not shown) [Compound 4.13, N6-(2-amino-2-phenyl-propyl)-N4-(3,4-dichlorophenyl)-1-methyl-pyrazolo[3,4-d]pyrimidine-4,6-diamine]	86.6 nM	258 nM
Cn1ncc2c(Nc3ccc(OC(F)F)cc3)nc(NCC(N)c3ccccc3)nc21 (stereo not shown) [Compound 4.14, 6-N-(2-amino-2-phenylethyl)-4-N-[4-(difluoromethoxy)phenyl]-1-methylpyrazolo[3,4-d]pyrimidine-4,6-diamine]	89.5 nM	206 nM
Cn1ncc2c(Nc3ccc(OC(F)F)cc3)nc(NCC(C)(N)c3ccccc3)nc21 (stereo not shown) [Compound 4.15, 6-N-(2-amino-2-phenylpropyl)-4-N-[4-(difluoromethoxy)phenyl]-1-methylpyrazolo[3,4-d]pyrimidine-4,6-diamine]	69.4 nM	295 nM
Cc1nn(C)c2nc(NCC(N)c3ccccc3)nc(Nc3ccc(C(F)(F)F)cc3)c12 (stereo not shown) [Compound 4.18, 6-N-(2-amino-2-phenylethyl)-1,3-dimethyl-4-N-[4-(trifluoromethyl)phenyl]pyrazolo[3,4-d]pyrimidine-4,6-diamine]	288 nM	270 nM
Cn1ncc2c(Nc3ccc(C(F)(F)F)cc3)nc(NCC(C)(N)c3ccccc3)nc21 (stereo not shown) [Compound 4.19, N6-(2-amino-2-phenyl-propyl)-1-methyl-N4-[4-(trifluoromethyl)phenyl]pyrazolo[3,4-d]pyrimidine-4,6-diamine]	36.1 nM	86.4 nM
[2H]C([2H])([2H])n1ncc2c(Nc3ccc(C(F)(F)F)cc3)nc(NCC(C)(N)c3ccccc3)nc21 (stereo not shown) [Compound 4.21, N6-(2-amino-2-phenyl-propyl)-1-(trideuteriomethyl)-N4-[4-(trifluoromethyl)phenyl]pyrazolo[3,4-d]pyrimidine-4,6-diamine]	42.8 nM	218 nM
[2H]C([2H])([2H])n1ncc2c(Nc3ccc(C(F)(F)F)cc3)nc(NC[C@H](N)c3ccccc3)nc21 [Compound 4.24, N6-[(2R)-2-amino-2-phenyl-ethyl]-1-(trideuteriomethyl)-N4-[4-(trifluoromethyl)phenyl]pyrazolo[3,4-d]pyrimidine-4,6-diamine]	13.9 nM	14.4 nM

Continued by falling IC50 (BCDIN3D [1]), values first:

IC50 (BCDIN3D [1])	IC50 (BCDIN3D [2])	Compound
4920 nM	60000 nM	Cn1ncc2c(Nc3ccccc3)nc(NCC3(N)COC3)nc21 [Compound 3.29, 6-N-[(3-Aminooxetan-3-yl)methyl]-1-methyl-4-N-phenylpyrazolo[3,4-d]pyrimidine-4,6-diamine]
1520 nM	202 nM	Cn1ncc2c(Nc3ccc(C(F)(F)F)cc3)nc(NC[C@@H](N)c3ccccc3)nc21 [Compound 4.23, 6-N-[(2S)-2-amino-2-phenylethyl]-1-methyl-4-N-[4-(trifluoromethyl)phenyl]pyrazolo[3,4-d]pyrimidine-4,6-diamine]
1140 nM	1410 nM	Cc1ccc(CNc2nc(NC3CCCCC3N)nc3c2cnn3C)cc1Cl (stereo not shown) [Compound 3.30, N6-(2-aminocyclohexyl)-N4-[(3-chloro-4-methylphenyl)methyl]-1-methyl-1H-pyrazolo[3,4-d]pyrimidine-4,6-diamine]
1080 nM	2950 nM	Cn1ncc2c(NCc3ccc(C(F)(F)F)nc3)nc(NCC(N)c3ccccc3)nc21 (stereo not shown) [Compound 4.08, 6-N-(2-amino-2-phenylethyl)-1-methyl-4-N-[[6-(trifluoromethyl)pyridin-3-yl]methyl]pyrazolo[3,4-d]pyrimidine-4,6-diamine]
424 nM	820 nM	Cn1ncc2c(NCc3ccc(F)cc3F)nc(NCC(N)c3ccccc3)nc21 (stereo not shown) [Compound 4.04, 6-N-(2-amino-2-phenylethyl)-4-N-[(2,4-difluorophenyl)methyl]-1-methylpyrazolo[3,4-d]pyrimidine-4,6-diamine]
325 nM	1940 nM	[2H]C([2H])([2H])n1ncc2c(NC(C)(C)C)nc(NCC(C)(N)c3ccccc3)nc21 (stereo not shown) [Compound 4.01, N6-(2-Amino-2-phenyl-propyl)-N4-tert-butyl-1-(trideuteriomethyl)pyrazolo[3,4-d]pyrimidine-4,6-diamine]
178 nM	505 nM	COc1ccc(CNc2nc(NCC(N)c3ccccc3)nc3c2cnn3C)c(OC)c1 (stereo not shown) [Compound 4.09, N6-(2-amino-2-phenyl-ethyl)-N4-[(2,4-dimethoxyphenyl)methyl]-1-methyl-pyrazolo[3,4-d]pyrimidine-4,6-diamine]
62.5 nM	166 nM	Cc1ccc(CNc2nc(NCC(N)c3ccccc3)nc3c2cnn3C)cc1Cl (stereo not shown) [Compound 4.03, 6-N-(2-amino-2-phenylethyl)-4-N-[(3-chloro-4-methylphenyl)methyl]-1-methylpyrazolo[3,4-d]pyrimidine-4,6-diamine]
50.1 nM	178 nM	Cn1ncc2c(Nc3ccc(C(F)(F)F)cc3)nc(NCC(N)c3ccccc3)nc21 (stereo not shown) [Compound 4.17, 6-N-(2-amino-2-phenylethyl)-1-methyl-4-N-[4-(trifluoromethyl)phenyl]pyrazolo[3,4-d]pyrimidine-4,6-diamine]
40.8 nM	46.3 nM	Cn1ncc2c(Nc3ccc(OC(F)F)cc3)nc(NC[C@H](N)c3ccccc3)nc21 [Compound 4.16, N6-[(2R)-2-amino-2-phenyl-ethyl]-N4-[4-(difluoromethoxy)phenyl]-1-methyl-pyrazolo[3,4-d]pyrimidine-4,6-diamine]
38.5 nM	60.4 nM	[2H]C([2H])([2H])n1ncc2c(Nc3ccc(C(F)(F)F)cc3)nc(NCC(N)c3ccccc3)nc21 (stereo not shown) [Compound 4.20, N6-(2-amino-2-phenyl-ethyl)-1-(trideuteriomethyl)-N4-[4-(trifluoromethyl)phenyl]pyrazolo[3,4-d]pyrimidine-4,6-diamine]
34.1 nM	29.9 nM	Cn1ncc2c(Nc3ccc(C(F)(F)F)cc3)nc(NC[C@H](N)c3ccccc3)nc21 [Compound 4.22, 6-N-[(2R)-2-amino-2-phenylethyl]-1-methyl-4-N-[4-(trifluoromethyl)phenyl]pyrazolo[3,4-d]pyrimidine-4,6-diamine]
